Measurements taken from US20090163548A1, “Method of using and comopositions comprising immunomodulatory compounds for the treatment and management of myeloproliferative diseases” (priority 2004, published 2009).
pIC50: −log10 of the molar value.

Assays:
TNF-α [1] = test: Inhibition of TNF-α production following LPS-stimulation of human whole blood; type: cell-based; conditions: LPS-stimulated, read-out: IC50 for inhibiting production of TNF-α following LPS-stimulation of human whole blood
Text: (§1) Inhibition of TNF-α production following LPS-stimulation of human PBMC and human whole blood by 3-(4-amino-1-oxo-1,3-dihydro-isoindol-2-yl)-piperidine-2,6-dione or thalidomide was investigated in vitro (Muller et al., Bioorg. Med. Chem. Lett. 9:1625-1630, 1999).

TNF-α [2] = test: Inhibition of TNF-α production following LPS-stimulation of human PBMC; type: cell-based; conditions: LPS-stimulated, read-out: IC50 for inhibiting production of TNF-α following LPS-stimulation of PBMC
Text: as §1

various cytokines = test: In vitro studies of effects on the production of various cytokines, comparison with thalidomide; type: cell-based; conditions: in all in vitro cytokine production studies
Text: The pharmacological properties of 3-(4-amino-1-oxo-1,3-dihydro-isoindol-2-yl)-piperidine-2,6-dione, including activity comparisons with thalidomide, have been characterized in in vitro studies. Studies examined the effects of 3-(4-amino-1-oxo-1,3-dihydro-isoindol-2-yl)-piperidine-2,6-dione or thalidomide on the production of various cytokines. […] In addition, a safety pharmacology study of 3-(4-amino-1-oxo-1,3-dihydro-isoindol-2-yl)-piperidine-2,6-dione has been conducted in dogs and the effects of 3-(4-amino-1-oxo-1,3-dihydro-isoindol-2-yl)-piperidine-2,6-dione on ECG parameters were examined further as part of three repeat-dose toxicity studies in primates.

[3] = dog, in vivo
Description: The effects of 3-(4-amino-1-oxo-1,3-dihydro-isoindol-2-yl)-piperidine-2,6-dione on cardiovascular and respiratory function were investigated in anesthetized dogs. Two groups of Beagle dogs (2/sex/group) were used. One group received three doses of vehicle only and the other received three ascending doses of 3-(4-amino-1-oxo-1,3-dihydro-isoindol-2-yl)-piperidine-2,6-dione (2, 10, and 20 mg/kg). In all cases, doses of 3-(4-amino-1-oxo-1,3-dihydro-isoindol-2-yl)-piperidine-2,6-dione or vehicle were successively administered via infusion through the jugular vein separated by intervals of at least 30 minutes.
The only statistically significant difference between the vehicle and treatment groups was a small increase in arterial blood pressure (from 94 mmHg to 101 mmHg) following administration of the low dose of 3-(4-amino-1-oxo-1,3-dihydro-isoindol-2-yl)-piperidine-2,6-dione.

With `Nc1cccc2c1CN(C1CCC(=O)NC1=O)C2=O` (stereo not shown) [3-(4-amino-1-oxo-1,3-dihydro-isoindol-2-yl)-piperidine-2,6-dione] the pIC50 (TNF-α [1]) was about 6.32, the pIC50 (TNF-α [2]) was about 7.00 and the “Potency relative to thalidomide” value (various cytokines) was “at least 50 times”. The “Arterial blood pressure after administration” value ([3]; both, Beagle, 2 mg/kg) was 101 mmHg, the “Duration of the increase in arterial blood pressure” value ([3]; both, Beagle, 2 mg/kg) was “approximately 15 minutes” and the “Deviations in femoral blood flow, respiratory parameters, and Qtc interval” value [3] was “not considered treatment-related”. The “Increase in arterial blood pressure at higher doses” value [3] was “not seen at higher doses”.
